In paper PMC11661291, “Unique structural features in a deep-sea CYP51 relate to high pressure adaptation” (Research Square, 2024):
One block for each compound: values may come before it.

Key:
C. armatus CYP51 [1] = target: T1, C. armatus CYP51 (Coryphaenoides armatus, UniProt Z9AQN8BZD8); assay: Reconstituted catalytic activity, steady-state kinetic analysis of sterol 14α-demethylation; details: 0.25 μM P450, 1 μM CPR, 1 min reaction, 37 °C
Description: (§1) The samples were preincubated for 3 min at 37 °C in a shaking water bath, the reaction was initiated by the addition of 100 μM NADPH and stopped by the extraction of sterols with ethyl acetate. The extracted sterols were dried, dissolved in 100 μL of methanol, and the products were analyzed by reversed-phase HPLC equipped with a β-RAM detector (INUS Systems) using a Nova-Pak 3.9 mm × 150 mm (4 μm) octadecylsilane (C18) HPLC column. The products were separated with an isocratic mobile phase composed of acetonitrile and methanol (4:1 (v/v)) at a flow rate of 0.75 mL/min[9]. Michaelis-Menten parameters were calculated using GraphPad Prism. The kcat and Km values for each reaction were determined by fitting the data to a Michaelis–Menten hyperbola, with the reaction rates (nmol product formed/nmol P450/min) being plotted versus total substrate concentration.

C. armatus CYP51 [2] = target: T1, C. armatus CYP51; assay: Spectral titrations with sterol substrates (type I spectral response); details: for Low-to-high spin state transition in the heme iron / Change in absorbance, ΔAmax per μM P450: sterol 0.25–3 μM; for Low-to-high spin state transition in the heme iron: 22 °C; for Change in absorbance, ΔAmax per μM P450: optical pathlength 1 cm
Description: Equal amounts of the HPCD solution were added to the reference cuvette to correct for the solvent-induced spectral perturbations, and the difference spectra were taken in the wavelength range of 350–500 nm. The apparent spectral dissociation constants of the enzyme-substrate complex (Kd) were calculated in GraphPad Prism software by fitting the data for the substrate-induced absorbance changes Δ(A390-A423) versus substrate concentration to a one site-total binding equation (binding-saturation).

C. armatus CYP51 [3] = target: T1, C. armatus CYP51; assay: Stabilizing effect of TMAO registered by CO-binding spectra
Description: Absorption spectra (270–700 nm) were recorded at 22 °C using a dual-beam Shimadzu UV-2600i spectrophotometer and software UVProbe2.71. The P450 concentration was determined from the Soret band absorbance in the absolute spectrum, the extinction coefficient 117 mM^−1 cm^−1 for the low-spin ferric form or 91 mM^−1 cm^−1 for the reduced (ferrous) carbon monoxide (CO) complex in the difference spectra[51].The spin state of the P450 samples was estimated from the absolute spectra using the ratio (ΔA393–470/ΔA417–470), with values of 0.35 and 2.0 corresponding to 100% low- and 100% high-spin iron, respectively.
After data collection the crystals were dissolved in phosphate buffered saline (PBS, Gibco). UV-visible absolute absorption spectra (270–700 nm) were recorded at room temperature using a single beam spectrophotometer NanoVue,4282 (CE Healthcare) (Figure S4A). CO-binding difference absorption spectra (400–500 nm) were recorded using a dual-beam Shimadzu UV-2600i spectrophotometer as follows. The CO gas was bubbled through the protein solution, which was then divided into two cuvettes serving as a blank and standard, respectively. The baseline was taken, and a few crystals of sodium dithionate were added to the sample cuvette (Figure S4B). The corresponding spectra of the original protein sample that was used for crystallization were taken for comparison.

C. armatus CYP51 [4] = target: T1, C. armatus CYP51; assay: Inhibition of reconstituted enzymatic activity (decrease in substrate conversion in 1 h reaction); details: enzyme/inhibitor/substrate 1:50:50, 60 min, 0.5 μM P450
Description: as §1

C. armatus CYP51 [5] = target: T1, C. armatus CYP51; assay: Spectral titrations with azole-based ligands
Description: Titrations with azole-based compounds were carried out at 0.5 μM P450 concentration in 5-cm optical path length cuvettes. Aliquots of 0.1 mM compounds dissolved in dimethyl sulfoxide (DMSO) were added to the sample cuvette, with each titration step being 0.1 μM. At each step, the corresponding volume of DMSO was added to the reference cuvette. The apparent spectral dissociation constants (Kd) were calculated in GraphPad Prism software as described for human CYP51[21].

human CYP51 [6] = target: human CYP51; parameters: method as in PMID 27313059; details: azole ligand; read-out: apparent dissociation constant (Kd); cited from earlier work
human CYP51 [7] = system: human CYP51; parameters: method as in PMID 27313059; details: 50-fold molar excess of inhibitor over enzyme, 1-hour reaction; cited from earlier work
[8] = system: CC(C)=CCC[C@@H](C)[C@H]1CC[C@@]2(C)C3=C(CC[C@]12C)[C@@]1(C)CC[C@H](O)C(C)(C)[C@@H]1CC3; assay: purified protein, by the assay type; details: other: 0.25 μM P450, 1 μM CPR, 1 min reaction, 37 °C
Description: as §1

[9] = system: C=C(CC[C@@H](C)[C@H]1CC[C@@]2(C)C3=C(CC[C@]12C)[C@@]1(C)CC[C@H](O)[C@@H](C)[C@@H]1CC3)C(C)C; assay: purified protein, by the assay type; details: other: 0.25 μM P450, 1 μM CPR, 1 min reaction, 37 °C
Description: as §1

[10] = system: C=C(CC[C@@H](C)C1CC[C@@]2(C)C3=C(CC[C@]12C)[C@@]1(C)CC[C@H](O)C(C)(C)C1CC3)C(C)C; assay: purified protein, by the assay type; details: other: 0.25 μM P450, 1 μM CPR, 1 min reaction, 37 °C
Description: as §1

T1 sequence (Z9AQN8BZD8 6-449 limits assumed): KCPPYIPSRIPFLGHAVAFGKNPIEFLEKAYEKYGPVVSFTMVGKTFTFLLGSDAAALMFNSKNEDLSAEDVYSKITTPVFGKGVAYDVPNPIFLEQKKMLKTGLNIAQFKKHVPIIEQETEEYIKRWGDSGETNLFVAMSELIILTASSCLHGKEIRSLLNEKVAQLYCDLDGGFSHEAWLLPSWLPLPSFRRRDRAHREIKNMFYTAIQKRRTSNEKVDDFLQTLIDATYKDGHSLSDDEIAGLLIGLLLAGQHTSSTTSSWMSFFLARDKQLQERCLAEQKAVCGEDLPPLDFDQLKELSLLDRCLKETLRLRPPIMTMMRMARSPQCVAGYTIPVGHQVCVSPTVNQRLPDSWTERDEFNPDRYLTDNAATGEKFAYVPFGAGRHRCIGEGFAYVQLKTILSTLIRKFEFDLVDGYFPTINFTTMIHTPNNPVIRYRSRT

Compound: C=C(CC[C@@H](C)C1CC[C@@]2(C)C3=C(CC[C@]12C)[C@@]1(C)CC[C@H](O)C(C)(C)C1CC3)C(C)C (stereo partly drawn)
kcat (C. armatus CYP51 [1]): 1.03 s⁻¹
Kd (C. armatus CYP51 [2]; read-out: Kd (apparent spectral dissociation constant), sterol substrate, P450 2 μM): 1020 nM
Low-to-high spin state transition in the heme iron (C. armatus CYP51 [2]; P450 2 μM): 27%
Change in absorbance, ΔAmax per μM P450 (C. armatus CYP51 [2]; P450 2 μM): 30

Compound: CC(C)=CCC[C@@H](C)[C@H]1CC[C@@]2(C)C3=C(CC[C@]12C)[C@@]1(C)CC[C@H](O)C(C)(C)[C@@H]1CC3 [Lanosterol]
kcat (C. armatus CYP51 [1]): 0.797 s⁻¹
Kd (C. armatus CYP51 [2]): 770 nM
Low-to-high spin state transition in the heme iron (C. armatus CYP51 [2]; P450 2 μM): 22%
Change in absorbance, ΔAmax per μM P450 (C. armatus CYP51 [2]; P450 2 μM): 24

Compound: C=C(CC[C@@H](C)[C@H]1CC[C@@]2(C)C3=C(CC[C@]12C)[C@@]1(C)CC[C@H](O)[C@@H](C)[C@@H]1CC3)C(C)C [Obtusifoliol]
kcat (C. armatus CYP51 [1]): 0.865 s⁻¹
Kd (C. armatus CYP51 [2]): 560 nM
Low-to-high spin state transition in the heme iron (C. armatus CYP51 [2]; P450 2 μM): 13%
Change in absorbance, ΔAmax per μM P450 (C. armatus CYP51 [2]; P450 2 μM): 14

Compound: C[N+](C)(C)[O-] [TMAO, trimethylamine oxide]
spectral response in the heme iron (C. armatus CYP51 [3]): does not cause any spectral response
P450 recovery after overnight incubation (CO-binding spectra) (C. armatus CYP51 [3]; 10 μM TMAO, overnight storage at 4 °C in PBS): 90%

inhibition of C. armatus CYP51 activity (C. armatus CYP51 [4]): did not have any inhibitory effect
Compound: N#Cc1ccc(COc2ccc(C#Cc3ccc(C(F)(F)[C@](O)(Cn4cnnn4)c4ccc(F)cc4F)nc3)cc2)cc1 [VT-1598]

inhibition of C. armatus CYP51 activity (C. armatus CYP51 [4]): did not have any inhibitory effect
Compound: C[C@@H](c1nc(-c2ccc(C#N)cc2)cs1)[C@](O)(Cn1cncn1)c1cc(F)ccc1F [isavuconazole]

Kd (C. armatus CYP51 [5]): 620 nM
inhibition of C. armatus CYP51 activity (C. armatus CYP51 [4]): did not have any inhibitory effect
Compound: CCC(C)n1ncn(-c2ccc(N3CCN(c4ccc(OCC5COC(Cn6cncn6)(c6ccc(Cl)cc6Cl)O5)cc4)CC3)cc2)c1=O (stereo not drawn) [itraconazole]
Kd (human CYP51 [6]): 1290 nM

Compound: CC(=O)N1CCN(c2ccc(OCC3COC(Cn4ccnc4)(c4ccc(Cl)cc4Cl)O3)cc2)CC1 (stereo not drawn) [ketoconazole]
lanosterol converted in presence of inhibitor (human CYP51 [7]): 100%
Kd (C. armatus CYP51 [5]): 10 nM
Kd (human CYP51 [6]): 70 nM

inhibition of C. armatus CYP51 activity (C. armatus CYP51 [4]): did not have any inhibitory effect
Compound: O[C@@](Cn1cnnn1)(c1ccc(F)cc1F)C(F)(F)c1ccc(-c2ccc(OCC(F)(F)F)cc2)cn1 [oteseconazole]

inhibition of C. armatus CYP51 activity (C. armatus CYP51 [4]): did not have any inhibitory effect
Compound: CC[C@@H]([C@H](C)O)n1ncn(-c2ccc(N3CCN(c4ccc(OC[C@@H]5CO[C@@](Cn6cncn6)(c6ccc(F)cc6F)C5)cc4)CC3)cc2)c1=O [posaconazole]

Compound: C[C@@H](c1ncncc1F)[C@](O)(Cn1cncn1)c1ccc(F)cc1F [voriconazole]
Kd (C. armatus CYP51 [5]): 610 nM
Kd (human CYP51 [6]): 2530 nM
inhibition of C. armatus CYP51 activity (C. armatus CYP51 [4]): did not have any inhibitory effect

Compound: C. armatus CYP51 (Coryphaenoides armatus)
Km [8]: 8.1 µM
kcat [8]: 0.797 s⁻¹
kcat/Km [8]: 98300 M⁻¹ s⁻¹
Km [9]: 7.9 µM
kcat [9]: 0.865 s⁻¹
kcat/Km [9]: 110000 M⁻¹ s⁻¹
Km [10]: 13.0 µM
kcat [10]: 1.03 s⁻¹
kcat/Km [10]: 80000 M⁻¹ s⁻¹
